In this experiment the target is hNav1.7 (Homo sapiens, UniProt Q15858). Nature of the experiment: cell-based. The format is cell-based. The note with it: read-out: IWQ Use Nav1.7.
The mark [1] stands for this setting: IonWorks Quattro, clamped to −110 mV, depolarized to −10 mV, 5 min after compound, n=2.

Read-outs that look alike come from different tables or passages of the source. Positions of bridges follow the written chain, without caps; N, C: chain ends. Residues, ends and D or L forms follow the SMILES beside them.

Sequence of hNav1.7 (Q15858 whole entry, looked up): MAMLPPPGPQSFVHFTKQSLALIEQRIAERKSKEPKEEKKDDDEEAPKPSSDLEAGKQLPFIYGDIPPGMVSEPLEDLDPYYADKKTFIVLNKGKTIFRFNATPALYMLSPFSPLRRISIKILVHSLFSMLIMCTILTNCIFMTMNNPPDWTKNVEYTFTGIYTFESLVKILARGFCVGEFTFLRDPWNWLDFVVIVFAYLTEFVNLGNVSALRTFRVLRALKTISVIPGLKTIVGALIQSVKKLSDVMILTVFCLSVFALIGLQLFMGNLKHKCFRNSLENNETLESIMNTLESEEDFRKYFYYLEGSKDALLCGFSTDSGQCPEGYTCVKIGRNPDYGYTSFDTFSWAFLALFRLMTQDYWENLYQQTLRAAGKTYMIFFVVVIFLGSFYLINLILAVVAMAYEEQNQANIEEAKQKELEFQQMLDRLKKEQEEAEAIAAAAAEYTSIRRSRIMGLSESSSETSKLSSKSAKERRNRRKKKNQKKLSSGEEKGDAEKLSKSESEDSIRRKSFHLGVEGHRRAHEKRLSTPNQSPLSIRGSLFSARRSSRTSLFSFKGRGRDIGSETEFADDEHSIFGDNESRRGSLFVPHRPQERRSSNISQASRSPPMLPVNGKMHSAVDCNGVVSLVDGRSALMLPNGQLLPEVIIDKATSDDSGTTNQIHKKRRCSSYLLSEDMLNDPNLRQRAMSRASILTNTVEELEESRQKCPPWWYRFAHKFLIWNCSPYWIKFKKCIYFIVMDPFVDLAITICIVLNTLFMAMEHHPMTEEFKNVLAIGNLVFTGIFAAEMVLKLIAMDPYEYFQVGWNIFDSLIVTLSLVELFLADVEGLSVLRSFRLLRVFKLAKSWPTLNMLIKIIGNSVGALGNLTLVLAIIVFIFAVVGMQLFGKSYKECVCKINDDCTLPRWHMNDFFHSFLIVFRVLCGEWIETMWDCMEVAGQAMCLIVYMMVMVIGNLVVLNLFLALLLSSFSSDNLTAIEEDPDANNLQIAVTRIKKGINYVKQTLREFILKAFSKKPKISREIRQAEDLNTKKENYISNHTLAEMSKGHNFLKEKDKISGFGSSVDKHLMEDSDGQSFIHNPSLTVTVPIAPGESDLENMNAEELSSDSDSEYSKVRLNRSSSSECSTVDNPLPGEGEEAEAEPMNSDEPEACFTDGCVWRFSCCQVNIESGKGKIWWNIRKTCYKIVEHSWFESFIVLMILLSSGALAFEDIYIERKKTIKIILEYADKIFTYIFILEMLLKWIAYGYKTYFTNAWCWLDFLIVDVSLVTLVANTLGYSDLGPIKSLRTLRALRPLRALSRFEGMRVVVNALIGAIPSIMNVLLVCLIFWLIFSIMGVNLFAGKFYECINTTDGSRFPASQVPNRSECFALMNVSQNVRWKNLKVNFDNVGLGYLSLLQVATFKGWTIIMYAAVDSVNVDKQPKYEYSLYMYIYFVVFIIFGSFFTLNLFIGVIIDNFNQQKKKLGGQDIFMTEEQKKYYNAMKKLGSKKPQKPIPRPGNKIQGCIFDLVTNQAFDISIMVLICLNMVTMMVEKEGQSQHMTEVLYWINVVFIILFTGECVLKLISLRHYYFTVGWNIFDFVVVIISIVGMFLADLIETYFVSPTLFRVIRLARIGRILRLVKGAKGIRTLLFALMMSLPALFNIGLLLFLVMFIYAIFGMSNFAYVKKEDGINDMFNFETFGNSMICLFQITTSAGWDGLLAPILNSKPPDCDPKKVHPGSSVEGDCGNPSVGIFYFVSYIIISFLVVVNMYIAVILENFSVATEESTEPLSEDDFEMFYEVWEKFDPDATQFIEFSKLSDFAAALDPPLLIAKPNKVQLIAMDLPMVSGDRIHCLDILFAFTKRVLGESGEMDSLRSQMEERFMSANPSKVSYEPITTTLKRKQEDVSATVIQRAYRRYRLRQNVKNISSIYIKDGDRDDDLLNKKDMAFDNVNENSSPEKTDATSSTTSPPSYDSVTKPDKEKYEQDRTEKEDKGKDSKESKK

Consider `CSCC[C@@H]1NC(=O)[C@H](Cc2ccccc2)NC(=O)CNC(=O)[C@H](CC(C)C)NC(=O)[C@@H](NC(=O)[C@@H](N)CC(=O)O)CSSC[C@@H]2NC(=O)[C@@H]3CSSC[C@@H](C(=O)N[C@@H](CCCCN)C(=O)N[C@@H](Cc4ccc(O)cc4)C(=O)N[C@H](C(=O)N[C@@H](Cc4ccccc4)C(N)=O)C(C)C)NC(=O)[C@H](Cc4c[nH]c5ccccc45)NC(=O)[C@H](CCCCN)NC(=O)[C@H](Cc4c[nH]cn4)NC(=O)[C@H]([C@@H](C)O)NC(=O)[C@H](CCCNC(=N)N)NC(=O)[C@H](CO)NC(=O)[C@H](CSSC[C@H](NC(=O)[C@H](CCCCN)NC(=O)[C@H](CCCNC(=N)N)NC1=O)C(=O)N[C@@H](CC(=O)O)C(=O)N1CCC[C@H]1C(=O)N[C@@H](CC(=O)O)C(=O)N[C@@H](CC(N)=O)C(=O)N[C@@H](CC(=O)O)C(=O)N[C@@H](CCCCN)C(=O)N3)NC(=O)[C@H](C(C)C)NC(=O)[C@H](CC(C)C)NC(=O)[C@H](CC(N)=O)NC(=O)[C@@H]1CCCN1C(=O)[C@H](CCCNC(=N)N)NC2=O` [SEQ ID NO: 119, [Asp10]GpTx-1] (H-DCLGFMRKCDPDNDKCCRPNLVCSRTHKWCKYVF-NH2; disulfide 2-17, 9-23, 16-30), for which the IC50 came to 220 nM.

Regarding `CC[C@H](C)[C@@H]1NC(=O)[C@@H]2CSSC[C@@H]3NC(=O)[C@H](C(C)C)NC(=O)[C@H](CC(C)C)NC(=O)[C@H](CC(N)=O)NC(=O)[C@@H]4CCCN4C(=O)[C@H](CCCNC(=N)N)NC(=O)[C@H](CSSC[C@H](NC(=O)[C@@H](N)CC(=O)O)C(=O)N[C@@H](CC(C)C)C(=O)N[C@@H](C)C(=O)N[C@@H](Cc4ccccc4)C(=O)N[C@@H](CCSC)C(=O)N[C@@H](CCCNC(=N)N)C(=O)N[C@@H](CCCCN)C(=O)N2)NC(=O)[C@H](CSSC[C@@H](C(=O)N[C@@H](CCCCN)C(=O)N[C@@H](Cc2ccc(O)cc2)C(=O)N[C@H](C(=O)N[C@@H](Cc2ccccc2)C(N)=O)C(C)C)NC(=O)[C@H](Cc2c[nH]c4ccccc24)NC(=O)[C@H](CCCCN)NC(=O)[C@H](Cc2c[nH]cn2)NC(=O)[C@H]([C@@H](C)O)NC(=O)[C@H](CCCNC(=N)N)NC(=O)[C@H](CO)NC3=O)NC(=O)[C@H](CCCCN)NC(=O)[C@H](CC(=O)O)NC(=O)[C@H](CC(N)=O)NC(=O)[C@H](CC(=O)O)NC(=O)[C@@H]2CCCN2C1=O` [SEQ ID NO: 141] (H-DCLAFMRKCIPDNDKCCRPNLVCSRTHKWCKYVF-NH2; disulfide 2-17, 9-23, 16-30), the IC50 under setting [1] came out at 270 nM.

Turning to `CC[C@H](C)[C@@H]1NC(=O)[C@@H]2CSSC[C@@H]3NC(=O)[C@H](C(C)C)NC(=O)[C@H](CC(C)C)NC(=O)[C@H](CC(N)=O)NC(=O)[C@@H]4CCCN4C(=O)[C@H](CCCNC(=N)N)NC(=O)[C@H](CSSC[C@H](NC(=O)[C@@H](N)CC(=O)O)C(=O)N[C@@H](CC(C)C)C(=O)NCC(=O)N[C@@H](Cc4ccccc4)C(=O)N[C@@H](CCC(=O)O)C(=O)N[C@@H](CCCNC(=N)N)C(=O)N[C@@H](CCCCN)C(=O)N2)NC(=O)[C@H](CSSC[C@@H](C(=O)N[C@@H](CCCCN)C(=O)N[C@@H](Cc2ccc(O)cc2)C(=O)N[C@H](C(=O)N[C@@H](Cc2ccccc2)C(N)=O)C(C)C)NC(=O)[C@H](Cc2c[nH]c4ccccc24)NC(=O)[C@H](CCCCN)NC(=O)[C@H](Cc2c[nH]cn2)NC(=O)[C@H]([C@@H](C)O)NC(=O)[C@H](CCCNC(=N)N)NC(=O)[C@H](CO)NC3=O)NC(=O)[C@H](CCCCN)NC(=O)[C@H](CC(=O)O)NC(=O)[C@H](CC(N)=O)NC(=O)[C@H](CC(=O)O)NC(=O)[C@@H]2CCCN2C1=O` [SEQ ID NO: 144] (H-DCLGFERKCIPDNDKCCRPNLVCSRTHKWCKYVF-NH2; disulfide 2-17, 9-23, 16-30), under setting [1], the IC50 stood at 3510 nM.

With `CSCC[C@@H]1NC(=O)[C@H](Cc2ccccc2)NC(=O)CNC(=O)[C@H](CC(C)C)NC(=O)[C@@H](NC(=O)[C@@H](N)CC(=O)O)CSSC[C@@H]2NC(=O)[C@@H]3CSSC[C@@H](C(=O)N[C@@H](CCCCN)C(=O)N[C@@H](Cc4ccc(O)cc4)C(=O)N[C@H](C(=O)N[C@@H](Cc4ccccc4)C(N)=O)C(C)C)NC(=O)[C@H](Cc4c[nH]c5ccccc45)NC(=O)[C@H](CCCCN)NC(=O)[C@H](Cc4c[nH]cn4)NC(=O)[C@H]([C@@H](C)O)NC(=O)[C@H](CCCNC(=N)N)NC(=O)[C@H](CO)NC(=O)[C@H](CSSC[C@H](NC(=O)[C@H](CCCCN)NC(=O)[C@H](CCCNC(=N)N)NC1=O)C(=O)N[C@@H](CCC(=O)O)C(=O)N1CCC[C@H]1C(=O)N[C@@H](CC(=O)O)C(=O)N[C@@H](CC(N)=O)C(=O)N[C@@H](CC(=O)O)C(=O)N[C@@H](CCCCN)C(=O)N3)NC(=O)[C@H](C(C)C)NC(=O)[C@H](CC(C)C)NC(=O)[C@H](CC(N)=O)NC(=O)[C@@H]1CCCN1C(=O)[C@H](CCCNC(=N)N)NC2=O` [SEQ ID NO: 146, [Glu10]GpTx-1] (H-DCLGFMRKCEPDNDKCCRPNLVCSRTHKWCKYVF-NH2; disulfide 2-17, 9-23, 16-30), the IC50 (IonWorks Quattro, Use) was determined as 90 nM.

Turning to `CC[C@H](C)[C@@H]1NC(=O)[C@@H]2CSSC[C@@H]3NC(=O)[C@H](C(C)C)NC(=O)[C@H](CC(C)C)NC(=O)[C@H](CC(N)=O)NC(=O)[C@@H]4CCCN4C(=O)[C@H](CCCNC(=N)N)NC(=O)[C@H](CSSC[C@H](NC(=O)[C@@H](N)CC(=O)O)C(=O)N[C@@H](CC(C)C)C(=O)NCC(=O)N[C@@H](Cc4ccccc4)C(=O)N[C@@H](CCSC)C(=O)N[C@@H](CCCNC(=N)N)C(=O)N[C@@H](CCCCN)C(=O)N2)NC(=O)[C@H](CSSC[C@@H](C(=O)N[C@@H](CCCCN)C(=O)N[C@@H](Cc2ccc(O)cc2)C(=O)N[C@H](C(=O)N[C@@H](Cc2ccccc2)C(N)=O)C(C)C)NC(=O)[C@H](Cc2c[nH]c4ccccc24)NC(=O)[C@H](CCCCN)NC(=O)[C@H](Cc2c[nH]cn2)NC(=O)[C@H]([C@@H](C)O)NC(=O)[C@H](CCCNC(=N)N)NC(=O)[C@H](CO)NC3=O)NC(=O)[C@H](CCCCN)NC(=O)[C@H](CC(=O)O)NC(=O)[C@H](CC(N)=O)NC(=O)[C@H](CC(=O)O)NC(=O)[C@H](CCC(=O)O)NC1=O` [SEQ ID NO: 147, [Glu11]GpTx-1] (H-DCLGFMRKCIEDNDKCCRPNLVCSRTHKWCKYVF-NH2; disulfide 2-17, 9-23, 16-30), where the note is “IonWorks Quattro, Use”, the IC50 stood at 220 nM.

With `CC[C@H](C)[C@@H]1NC(=O)[C@@H]2CSSC[C@@H]3NC(=O)[C@H](C(C)C)NC(=O)[C@H](CC(C)C)NC(=O)[C@H](CC(N)=O)NC(=O)[C@@H]4CCCN4C(=O)[C@H](CCCNC(=N)N)NC(=O)[C@H](CSSC[C@H](NC(=O)[C@@H](N)CC(=O)O)C(=O)N[C@@H](CC(C)C)C(=O)NCC(=O)N[C@@H](Cc4ccccc4)C(=O)N[C@@H](CCSC)C(=O)N[C@@H](CCCNC(=N)N)C(=O)N[C@@H](CCCCN)C(=O)N2)NC(=O)[C@H](CSSC[C@@H](C(=O)N[C@@H](CCCCN)C(=O)N[C@@H](Cc2ccc(O)cc2)C(=O)N[C@H](C(=O)N[C@@H](Cc2ccccc2)C(N)=O)C(C)C)NC(=O)[C@H](Cc2c[nH]c4ccccc24)NC(=O)[C@H](CCC(=O)O)NC(=O)[C@H](Cc2c[nH]cn2)NC(=O)[C@H]([C@@H](C)O)NC(=O)[C@H](CCCNC(=N)N)NC(=O)[C@H](CO)NC3=O)NC(=O)[C@H](CCCCN)NC(=O)[C@H](CC(=O)O)NC(=O)[C@H](CC(N)=O)NC(=O)[C@H](CC(=O)O)NC(=O)[C@@H]2CCCN2C1=O` [SEQ ID NO: 153, [Glu28]GpTx-1(1-34)] (H-DCLGFMRKCIPDNDKCCRPNLVCSRTHEWCKYVF-NH2; disulfide 2-17, 9-23, 16-30), for the setting “Table 23, IonWorks Quattro, use, […]”, the IC50 was found to be 340 nM.

Source of the values: patent publication US9340590B2 (priority 2011, dated 2016).
